How the values were obtained:
OATP1B1 = target: T1, OATP1B1 (Homo sapiens, UniProt Q9Y6L6); test: Inhibition by CLF of estrone-3-sulfate transport in CHO cells expressing OATP1B1; type: cell-based; details: 0, 5 or 50 μmol/L CLF, 1 μmol/L estrone-3-sulfate
T1 construct: expressed in transfected cells; host or cells: CHO cells (stably transfected; Treiber et al. 2007)
T1 sequence (Q9Y6L6 1-691): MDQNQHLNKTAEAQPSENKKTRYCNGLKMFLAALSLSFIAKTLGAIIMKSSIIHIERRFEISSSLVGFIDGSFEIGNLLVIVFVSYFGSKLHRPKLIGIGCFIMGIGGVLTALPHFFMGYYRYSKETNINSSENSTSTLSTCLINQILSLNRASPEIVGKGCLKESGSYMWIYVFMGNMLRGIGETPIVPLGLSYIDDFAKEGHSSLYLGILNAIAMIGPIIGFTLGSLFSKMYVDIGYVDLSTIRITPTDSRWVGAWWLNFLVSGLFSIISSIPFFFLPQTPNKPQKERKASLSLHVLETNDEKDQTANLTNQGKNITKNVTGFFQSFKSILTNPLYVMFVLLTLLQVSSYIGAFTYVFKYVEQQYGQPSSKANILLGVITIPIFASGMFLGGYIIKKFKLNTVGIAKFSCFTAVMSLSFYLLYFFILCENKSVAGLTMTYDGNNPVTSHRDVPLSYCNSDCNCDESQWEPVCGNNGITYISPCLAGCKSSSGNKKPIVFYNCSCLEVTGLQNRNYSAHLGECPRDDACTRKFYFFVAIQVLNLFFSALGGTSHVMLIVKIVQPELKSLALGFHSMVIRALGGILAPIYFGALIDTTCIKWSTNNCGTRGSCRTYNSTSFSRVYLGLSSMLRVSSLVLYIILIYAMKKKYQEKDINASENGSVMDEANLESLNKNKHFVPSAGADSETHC
Protocol: FIGS. 3A-3D relate to inhibition of transport activity of hepatocellular uptake transporters by CLF. CHO cells expressing NTCP, OATP1B1, OATP1B3 and OATP2B1 were incubated with 0, 5 or 50 μmol/L CLF and with the substrates, 2.5 μmol/L TC, 1 μmol/L estrone-3-sulfate, 10 μmol/L TC and 1 μmol/L estrone-3-sulfate, respectively. Data represent means±SD of triplicate determinations.
For all transport experiments, cells grown on 3 cm culture dishes were cultured for 24 hours in media supplemented with 5 mmol/L sodium-butyrate to increase expression levels of transfected transporters [Palermo D P et al., J Biotechnol 1991 June; 19(1):35-47]. • Transport experiments with uptake of radioactively labeled substrates: These experiments were performed as described by Huber R D et al. [Am J Physiol Cell Physiol 2007 February; 292(2):C795-C806]. • Transport experiments with uptake of CLF: Uptake was performed in the same buffers as for the radioactive substrates above. […] After complete solubilization, 1.5 ml was used to measure fluorescence in a Perkin-Elmer LS-5 luminescence-spectrometer set at λexe 486 nm (slit 10 nm) and λem 520 nm (slit 5 nm). Protein was determined with the bicinchoninic acid method using a kit from Interchim (Montfuçon, France). […]

ABCC2 = target: T2, ABCC2 (Homo sapiens, UniProt Q92887); test: CLF inhibition of DNP-SG transport into ABCC2 containing Sf21 membrane vesicles; type: biochemical; details: ATP-dependent transport, read-out: Half maximal inhibition of DNP-SG transport with CLF
T2 construct: made in house; host or cells: Sf21 insect cells, baculovirus; plasma membrane vesicles
Protocol: FIGS. 5A and 5B show CLF inhibition of DNP-SG and TC transport into ABCC2 (A) and ABCB11 (B) protein containing Sf21 membrane vesicles respectively. The values are expressed as a percentage of maximal ATP-dependent transport. Significance was tested using two-sided Student's t-test: *P<0.05 for transport in the presence vs. absence of inhibitor.
The production of recombinant baculovirus was as described by de Waart et al. [Liver Int 2006 April; 26(3):362-368]. ABCC3 and ABCG2-recombinant baculovirus were a kind gift from Borst [Breedveld P. et al., Cancer Res 2004 Aug. 15; 64(16):5804-5811 and Borst P. et al., J Biol Chem 2001 Dec. 7; 276(49):46400-46407.]. ABCB11-recombinant baculovirus was a kind gift from Thompson [Thompson R J et al., Gastroenterology 2002 November; 123(5):1649-1658]. Sf21 cells grown at 27° C. were infected with ABCB11, ABCC2, ABCC3 and ABCG2-cDNA containing baculovirus. Cells were harvested at 2-4 days after infection. […]
Transport studies with membrane vesicles were performed using the rapid filtration technique as described by Heijn M et al. [Am J Physiol 1992 January; 262(1 Pt 1):C104-C110]. Radiolabel was measured with a scintillation counter. […] Samples were pipetted in 96-well plates (Kartell, Noviglio, Italy) and the amount CLF quantitated by measurement of fluorescence at λexe 485 nm and λcm 520 nm using a NovoStar (BMG-labtech, Offenburg, Germany).

T2 sequence (Q92887 whole entry): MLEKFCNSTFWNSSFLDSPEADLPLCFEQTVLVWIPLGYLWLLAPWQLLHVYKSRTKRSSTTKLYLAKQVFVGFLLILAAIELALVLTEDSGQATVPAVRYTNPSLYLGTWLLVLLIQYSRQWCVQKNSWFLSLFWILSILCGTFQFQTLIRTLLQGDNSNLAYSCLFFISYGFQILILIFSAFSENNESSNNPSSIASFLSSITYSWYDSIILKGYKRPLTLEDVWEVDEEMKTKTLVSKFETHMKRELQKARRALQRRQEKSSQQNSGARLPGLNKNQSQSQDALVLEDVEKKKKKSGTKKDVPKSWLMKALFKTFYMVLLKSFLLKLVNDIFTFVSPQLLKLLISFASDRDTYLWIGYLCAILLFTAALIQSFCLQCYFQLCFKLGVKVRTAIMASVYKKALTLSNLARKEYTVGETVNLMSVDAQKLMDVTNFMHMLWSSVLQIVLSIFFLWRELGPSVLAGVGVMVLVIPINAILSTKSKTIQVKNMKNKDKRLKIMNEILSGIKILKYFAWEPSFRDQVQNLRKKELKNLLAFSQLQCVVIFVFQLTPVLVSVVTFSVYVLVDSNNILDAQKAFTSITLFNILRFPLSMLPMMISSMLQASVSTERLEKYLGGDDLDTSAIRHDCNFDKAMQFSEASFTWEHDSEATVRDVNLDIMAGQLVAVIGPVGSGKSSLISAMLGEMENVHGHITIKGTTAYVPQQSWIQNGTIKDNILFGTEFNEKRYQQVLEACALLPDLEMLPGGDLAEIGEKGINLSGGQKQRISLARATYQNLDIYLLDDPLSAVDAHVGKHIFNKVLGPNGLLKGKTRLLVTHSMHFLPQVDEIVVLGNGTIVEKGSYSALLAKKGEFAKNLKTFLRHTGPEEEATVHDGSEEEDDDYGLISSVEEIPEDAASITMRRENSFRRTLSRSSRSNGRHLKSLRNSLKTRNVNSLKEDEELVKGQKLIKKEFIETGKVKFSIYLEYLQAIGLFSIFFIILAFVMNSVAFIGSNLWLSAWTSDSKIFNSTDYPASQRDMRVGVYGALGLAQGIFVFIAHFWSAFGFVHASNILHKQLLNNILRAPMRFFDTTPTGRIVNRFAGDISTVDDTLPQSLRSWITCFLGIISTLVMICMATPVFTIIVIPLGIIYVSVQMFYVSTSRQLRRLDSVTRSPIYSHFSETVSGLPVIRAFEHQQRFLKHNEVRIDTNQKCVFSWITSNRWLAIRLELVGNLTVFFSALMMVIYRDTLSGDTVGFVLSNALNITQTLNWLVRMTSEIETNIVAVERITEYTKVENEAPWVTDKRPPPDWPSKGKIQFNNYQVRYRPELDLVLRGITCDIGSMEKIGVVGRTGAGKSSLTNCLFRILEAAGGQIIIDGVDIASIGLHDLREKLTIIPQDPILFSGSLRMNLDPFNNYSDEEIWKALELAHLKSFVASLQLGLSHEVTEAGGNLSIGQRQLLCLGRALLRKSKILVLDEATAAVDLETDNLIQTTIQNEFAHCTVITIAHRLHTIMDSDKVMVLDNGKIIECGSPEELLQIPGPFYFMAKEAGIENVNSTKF

Question: Which results are given for `CC(CCC(=O)NC(CCCCNC(=S)Nc1ccc(-c2c3ccc(=O)cc-3oc3cc(O)ccc23)c(C(=O)O)c1)C(=O)O)C1CCC2C3C(O)CC4CC(O)CCC4(C)C3CC(O)C12C` (centres unmarked) [CLF, cholyl lysyl fluorescein]?
Answer: inhibition of transport of estrone-3-sulfate mediated by OATP1B1 by CLF (OATP1B1): much less efficiently; IC50 (ABCC2): ~1000 nM

From patent publication US8318504B2, “MRP2 efflux pathway prognostic method” (priority 2009, dated 2012)
